Source: patent US6559099B1, “Methods for enhancing plant health, protecting plants from biotic and abiotic stress related injuries and enhancing the recovery of plants injured as a result of such stresses” (Wisconsin Alumni Research Foundation, priority 2000, dated 2003)
Several values for one entry are separate records, joined by “and”; a condition that tells them apart may be missing. Equal values may be shown once.

Experiments:
Assay type in all cases: in vivo
Tomato plants cv. H9478 = assay: Protection of drought injury and enhancement of recovery
Protocol: Tomato plants cv. […] (cultivar of Heinz Co.) were grown in 20 liter pots and placed in a growth chamber maintained at 24/18° C. day/night temperatures and a 16 hour photoperiod with 400 μmol m^-2s^-1 of cool-white fluorescent lights. Two month-old plants were sprayed with either distilled water, […]) or LPE 18:1 (100 mg/L) before exposure to drought stress. Drought stress was given by withholding water for 2 days. The plants were sprayed once again with distilled water, […]) or LPE 18:1 (100 mg/L) right after water was given (alleviation of water stress). During drought stress, all water, […] 18:1-sprayed plants were severely wilted but regained turgor soon after water was given again.

Tomato Plants cv. H9144 [1] = assay: Protection of pesticide (Marathon, imidacloprid) injury and enhancement of recovery; settings: 200 mg/L in 1% ethanol; 10 days after spraying (FIG. 3)
Text: Marathon with active […] of imidacloprid (available from Olympic Chemical Co., PO Box K, Mainland, Pa.) is a pesticide used for controlling whitefly in plants. This is a systemic pesticide and is introduced to the plant via soil application. As the pesticide accumulates in the foliage the insects feeding on the plants are killed. Sometimes as this chemical accumulates in the plant it can result in phytotoxicity to the plant. To test this, tomato plants cv. […] (cultivar of Heinz Co.) were grown for two (2) months in 20 liter pots in a greenhouse. […] Many leaves lost chlorophyll and plants had poor shoot growth. Three weeks after the treatment of pesticide, […]18:1 or LPI (200 mg/L each) solution containing 1% ethanol were sprayed to the point that solution started to run off the leaves. Control plants were sprayed with distilled water containing 1% ethanol. The LPE solution was prepared by wetting 200 mg of LPE in 1 ml ethanol and then adding distilled water to make 1 liter of total volume. The LPE solution was then sonicated 1 minute before spraying.

'Hazel' oat seeds = assay: Seedling vigour (root and shoot fresh weight) of 'Hazel' oats soaked in LPE or LPC; settings: 10 ppm (each), incubated at 20° C.; for Root fresh wt per seedling / Shoot Fresh wt per seedling: soaked 30 minutes; for Root fresh wt per seedlings / Shoot Fresh wt per seedlings: soaked 2 hours
Text: Values are mean±SE (4 replications). […] Values are mean±SE (4 replications).

Tomato Plants cv. H9144 [2] = assay: Protection of chilling injury and enhancement of recovery, tomato seedlings; settings: for Leaf Chlorophyll Mean ± SE / Leaf Phospholipids Mean ± SE / Leaf Water (fresh/dry wt ratio) Mean ± SE: measured 10 days after chilling
Protocol: Tomato Plants cv. […] (cultivar of Heinz Co.) were grown in 20-liter pots containing […], Ohio) in a greenhouse which was supplied with additional tungsten light for a 16 hour photoperiod. […] Control leaf branch was sprayed with distilled water. The LPE solution was prepared by suspending 200 mg of crude […] (Avanti Polar Lipids, Inc., Alabaster, Ala.) in one liter of distilled water and then sonicating for 1 minute before spraying. After 4 days of chilling treatment at 4/2° C. day/night temperatures and a 16 hour photoperiod with 200 μmol m^-2 s^-1 fluorescent light intensity, plants were transferred to a growth chamber maintained at 24/18° C. day/night temperatures and a 16 hour photoperiod with 400 μmol m^-2 s^-1 of fluorescent light intensity. […] When measured 10 days after chilling, LPE-sprayed leaf tissues, either before or after chilling, had higher levels of water, chlorophyll, and phospholipid content than water-sprayed control (see Table 1 below). […] Chilling and recovery conditions were the same as in Example 1a above.

[3] = tested on: Cucumber (Cucumis sativus inbred line-WI2238) plants; assay: Protection of chilling injury and recovery, cucumber seedlings; settings: 100 mg/L sprayed twice, 1 hour before and right after 2 days chilling
Protocol: Cucumber (Cucumis sativus inbred line-WI2238) plants were grown in 4 liter plastic pots containing a sterilized mixture of peat:sand:composited soil:field soil (1:1:1:1, v/v) at a greenhouse. Growing conditions and other details were same as in Example 1a. […] After 2 days of chilling treatment at the same conditions as in Example 1a , plants were transferred to a growth chamber maintained at 23±2° C. temperature and 16 hour photoperiod with 400 μmol […] of fluorescent light intensity.

[4] = tested on: castor bean (Ricinus communis L. cv Hale)
[5] = tested on: Sweet corn seeds (SS Jubilee); assay: Germination and seedling fresh mass of sweet corn seeds soaked in LPE solution; settings: soaked 2 hours
Protocol: Sweet corn seeds (SS Jubilee, certified seed obtained from the Wisconsin Crop Improvement Association, Madison Wis.) were soaked for 2 hours in LPE solution. Seeds were removed from the LPE solution and 50 seeds were placed on 2 paper towels and wetted with distilled water (5 seeds in one row) then seeds were covered with another wet paper towel. The three towels with the seeds were rolled, placed in a metal container and incubated at 25° C. The container was covered with plastic and the cover secured with a rubber band. The germination percentage was tested after 4 and 7 days. The procedure was as specified by the Association of Official Seed Analysts. Four replications were conducted with 50 seeds in each replication. […] Furthermore, LPE treated seeds produced larger (root and shoot) seedlings. SS Jubilee sweet corn seeds were soaked for 2 hours in LPE solution. Seeds were incubated using the same procedure described in Example 6. The germination percentage was tested after 4 and 7 days. Four replications were conducted with 50 seeds in each replication. […] On a commercial level, this means that LPE treatment of the seeds will insure more plants in a given field and that LPE treated seeds will produce plants having a head start.

H.2350 field corn seeds = assay: Germination and seedling fresh weight of field corn seeds soaked in LPE solution; settings: incubated at 25° C. for 8 days
Protocol: H.2350 (Certified seed obtained from the Wisconsin Crop Improvement Association, Madison, Wis.) field corn seeds were soaked in LPE solution. Seeds were incubated at 25° C. for 8 days using the procedure described in Example 6. Four replications were conducted with 50 seeds in each replication.

'Hazel' oats = assay: Germination of 'Hazel' oats soaked in LPE or LPC; settings: 10 ppm (each), incubated at 20° C.
Protocol: ‘Hazel’ oats (Certified seed obtained from the Wisconsin Crop Improvement Association, Madison, Wis.) were soaked in LPE or LPC. Seeds were soaked for either 30 minutes or 2 hours at room temperature (23±2° C.) and then incubated at 20° C. using the official seed germination test rules (Rules for testing seeds are published by the Association of Official Seed Analysts) for testing seeds. Four replications were conducted with 100 seeds in each replication. […] Moreover, a greater proportion of the seeds treated with these lipids, germinated earlier. Thus, this seed treating increased both the rate and amount of seed germination.

[6] = 100 mg/L sprayed before drought and right after water was given, after 2 or 3 days
[7] = 200 mg/L LPEegg spray, 4 days chilling at 4/2° C., vs water-sprayed control
[8] = 200 mg/L sprayed 1 hour before chilling
[9] = 200 mg/L sprayed right after chilling

## CCCCCCCC/C=C\CCCCCCCC(=O)OCC(O)COP(=O)(O)OCCN (stereo not drawn) [LPE 18:1]
Tomato plants cv. H9478; [6]
  shoot growth after drought stress: vigorous shoot growth
Tomato plants cv. H9478; 100 mg/L, 7 days after drought stress was alleviated (FIG. 2)
  shoot growth after drought stress: vigorous shoot growth
Tomato Plants cv. H9144 [1]
  shoot growth after pesticide injury: vigorous shoot growth

## Lysophosphatidyl choline [LPC]
'Hazel' oat seeds
  Root fresh wt per seedling: 40.4 ± 2.7 mg
  Shoot Fresh wt per seedling: 108.9 ± 4.5 mg
  Root fresh wt per seedlings: 48.9 ± 0.7 mg
  Shoot Fresh wt per seedlings: 130.4 ± 2.7 mg

## lysophosphatidylethanolamine [LPE]
Tomato Plants cv. H9144 [2]; 100 mg/L LPEegg sprayed 1 hour before chilling, vs water-sprayed and non-sprayed controls
  protection from chilling injury: most effective in protecting the plant from chilling injury
Tomato Plants cv. H9144 [2]; [7]
  chilling damage to the leaves: mitigation of chilling damage to the leaves
  shoot meristem growth after chilling: enhanced shoot meristem growth
Tomato Plants cv. H9144 [2]; [8]
  Leaf Chlorophyll Mean ± SE: 21.6 ± 0.1 mg/g dry wt
  Leaf Phospholipids Mean ± SE: 25.9 ± 0.3 nmol/mg dry wt
  Leaf Water (fresh/dry wt ratio) Mean ± SE: 10.1 ± 0.4 fresh/dry wt ratio
Tomato Plants cv. H9144 [2]; [9]
  Leaf Chlorophyll Mean ± SE: 28.2 ± 4.0 mg/g dry wt
  Leaf Phospholipids Mean ± SE: 25.7 ± 1.0 nmol/mg dry wt
  Leaf Water (fresh/dry wt ratio) Mean ± SE: 10.81 ± 0.5 fresh/dry wt ratio
[3]
  chilling damage in leaves: severe chilling damage in leaves
[3]; after 7 days
  shoot growth after chilling: vigorous shoot growth
Tomato plants cv. H9478; [6]
  shoot growth after drought stress: vigorous shoot growth
[4]; after 1 day
  leaf curling and browning after wounding: much less leaf curling and browning
[4]; in vivo
  leaf turgidity after wounding: remained turgid for several days
  wound-healing symptoms: leaf damaged areas were healed and gained green color
[5]; Table 2, 5 ppm
  Average Fresh Mass Produced from 50 seeds, Root (primary + secondary): 1.6 ± 0.4 g
  Average Fresh Mass Produced from 50 seeds, Shoot: 10.0 ± 0.5 g
[5]; Table 2, 5 ppm, 25° C.
  % Germination After 4 days: 61.0 ± 1.7%
  % Germination After 7 days: 70.0 ± 2.2%
[5]; Table 2, 10 ppm
  Average Fresh Mass Produced from 50 seeds, Root (primary + secondary): 1.3 ± 0.1 g
  Average Fresh Mass Produced from 50 seeds, Shoot: 8.7 ± 0.2 g
[5]; Table 2, 10 ppm, 25° C.
  % Germination After 4 days: 69.0 ± 2.6%
  % Germination After 7 days: 71.5 ± 2.8%
[5]; Table 2, 20 ppm
  Average Fresh Mass Produced from 50 seeds, Root (primary + secondary): 1.2 ± 0.0 g
  Average Fresh Mass Produced from 50 seeds, Shoot: 10.4 ± 0.4 g
[5]; Table 2, 20 ppm, 25° C.
  % Germination After 4 days: 60.0 ± 3.6%
  % Germination After 7 days: 65.0 ± 1.3%
[5]; Table 3 (Example 7), 1 ppm
  % Germination After 4 days: 68.5 ± 4.0%
  % Germination After 7 days: 76.5 ± 4.6%
  Average Fresh Mass Produced from 50 seeds, Root (primary + secondary): 0.9 ± 0.1 g
  Average Fresh Mass Produced from 50 seeds, Shoot: 9.1 ± 0.8 g
[5]; Table 3 (Example 7), 10 ppm
  % Germination After 4 days: 61.5 ± 5.7% and 73.8 ± 2.8%
  % Germination After 7 days: 68.0 ± 3.4% and 78.0 ± 2.3%
  Average Fresh Mass Produced from 50 seeds, Root (primary + secondary): 0.8 ± 0.0 g and 1.1 ± 0.1 g
  Average Fresh Mass Produced from 50 seeds, Shoot: 7.6 ± 0.3 g and 10.4 ± 0.4 g
H.2350 field corn seeds; 5 ppm
  % Germination: 97.0 ± 0.6%
  Fresh Weight Root (primary + secondary), average mass produced from 50 seeds: 14.2 ± 0.8 g
  Fresh Weight Shoot, average mass produced from 50 seeds: 16.2 ± 0.6 g
H.2350 field corn seeds; 10 ppm
  % Germination: 98.5 ± 1.0%
  Fresh Weight Root (primary + secondary), average mass produced from 50 seeds: 13.6 ± 0.3 g
  Fresh Weight Shoot, average mass produced from 50 seeds: 15.6 ± 0.7 g
'Hazel' oats; soaked 30 min
  % Germination (Mean ± SE) After 4 days: 87.7 ± 0.9% and 82.5 ± 1.7%
  % Germination (Mean ± SE) After 10 days: 91.3 ± 0.7% and 90.8 ± 1.1%
'Hazel' oats; soaked 2 hours
  % Germination (Mean ± SE) After 4 days: 82.8 ± 1.1% and 82.0 ± 1.2%
  % Germination (Mean ± SE) After 10 days: 94.3 ± 1.3% and 93.5 ± 1.0%
'Hazel' oat seeds
  Root fresh wt per seedling: 48.4 ± 1.9 mg
  Shoot Fresh wt per seedling: 124.1 ± 3.0 mg
  Root fresh wt per seedlings: 46.4 ± 0.6 mg
  Shoot Fresh wt per seedlings: 121.1 ± 2.5 mg

## lysophosphatidylinositol [LPI]
Tomato Plants cv. H9144 [1]
  shoot growth after pesticide injury: vigorous shoot growth
